Data as given in PubChem BioAssay (NCI).
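Where inhibition never reached the appropriate level, the endpoint shown equals the highest concentration tested. Otherwise, values were interpolated linearly from a five-concentration, 48-hour dose response in 96-well plates. At the GI50, growth is halved. TGI is the concentration that stops growth completely.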

Experiments:
Experiment in all cases: NCI tumour cell line growth inhibition, 48 h
[1] = test system: NCI-H460 lung
[2] = test system: SNB-75 CNS
[3] = test system: MDA-MB-231 breast
[4] = test system: RXF 393 renal
[5] = test system: T-47D breast
[6] = test system: MOLT-4 leukemia
[7] = test system: NCI-H23 lung
[8] = test system: A498 renal
[9] = test system: OVCAR-5 ovarian
[10] = test system: NCI/ADR-RES ovarian
[11] = test system: SNB-19 CNS
[12] = test system: CAKI-1 renal
[13] = test system: BT-549 breast
[14] = test system: PC-3 prostate
[15] = test system: SF-268 CNS
[16] = test system: DU-145 prostate
[17] = test system: MALME-3M melanoma
[18] = test system: SK-MEL-2 melanoma
[19] = test system: MCF7 breast
[20] = test system: HCT-15 colon
[21] = test system: NCI-H522 lung
[22] = test system: UO-31 renal
[23] = test system: MDA-MB-468 breast
[24] = test system: HL-60(TB) leukemia
[25] = test system: ACHN renal
[26] = test system: COLO 205 colon
[27] = test system: UACC-62 melanoma
[28] = test system: IGROV1 ovarian
[29] = test system: M14 melanoma
[30] = test system: HT29 colon
[31] = test system: OVCAR-3 ovarian
[32] = test system: NCI-H226 lung
[33] = test system: SK-MEL-28 melanoma
[34] = test system: MDA-MB-435
[35] = test system: UACC-257 melanoma
[36] = test system: RPMI-8226 leukemia
[37] = test system: SR leukemia
[38] = test system: SF-539 CNS
[39] = test system: EKVX NSCLC
[40] = test system: KM12 colon
[41] = test system: HCT-116 colon
[42] = test system: CCRF-CEM leukemia
[43] = test system: HCC-2998 colon
[44] = test system: K-562 leukemia
[45] = test system: OVCAR-4 ovarian
[46] = test system: SK-MEL-5 melanoma
[47] = test system: 786-0 renal
[48] = test system: SN12C renal
[49] = test system: OVCAR-8 ovarian
[50] = test system: LOX IMVI melanoma
[51] = test system: A549 NSCLC
[52] = test system: TK-10 renal
[53] = test system: SF-295 CNS
[54] = test system: HOP-62 NSCLC
[55] = test system: HS 578T breast
[56] = test system: SK-OV-3 ovarian
[57] = test system: U251 CNS
[58] = test system: HOP-92 NSCLC
[59] = test system: SW-620 colon

In the case of O=C(CN1CCN(c2ncnc3c2cnn3-c2ccccc2)CC1)Nc1nncs1, the GI50 [1] is reported as 4.25 µM, the TGI [1] is reported as 14.7 µM and the GI50 [2] is reported as 15.1 µM. For the same compound, the TGI [2] was 30.5 µM, the GI50 [3] was 1.78 µM and the TGI [3] was 3.87 µM. For the same compound, the GI50 [4] was 1.68 µM, the TGI [4] was 3.31 µM and the GI50 [5] was 7.93 µM. For the same compound, the TGI [5] was 24.1 µM, the GI50 [6] was 4.08 µM and the TGI [6] was 31.3 µM. For the same compound, the GI50 [7] was 1.74 µM, the TGI [7] was 3.57 µM and the GI50 [8] was 18.4 µM. For the same compound, the TGI [8] was 35 µM, the GI50 [9] was 6.41 µM and the TGI [9] was 19.3 µM. The GI50 [10] was 1.77 µM, the TGI [10] was 3.69 µM and the GI50 [11] was 12.2 µM. For the same compound, the TGI [11] was 24.6 µM, the GI50 [12] was 1.6 µM and the TGI [12] was 2.97 µM. For the same compound, the GI50 [13] was 1.55 µM, the TGI [13] was 3.02 µM and the GI50 [14] was 4.33 µM. The TGI [14] was 17.1 µM, the GI50 [15] was 4.79 µM and the TGI [15] was 19.3 µM. For the same compound, the GI50 [16] was 1.8 µM, the TGI [16] was 3.24 µM and the GI50 [17] was 1.69 µM. For the same compound, the TGI [17] was 3.3 µM, the GI50 [18] was 12.6 µM and the TGI [18] was 25.8 µM. The GI50 [19] was 4.32 µM, the TGI [19] was 18 µM and the GI50 [20] was 1.79 µM. It also gave a TGI [20] of 3.42 µM, a GI50 [21] of 1.62 µM and a TGI [21] of 3.09 µM. The GI50 [22] was 1.17 µM, the TGI [22] was 2.39 µM and the GI50 [23] was 3.05 µM. It also gave a TGI [23] of 13.7 µM, a GI50 [24] of 10.4 µM and a TGI [24] of 39.5 µM. It also gave a GI50 [25] of 1.79 µM, a TGI [25] of 3.18 µM and a GI50 [26] of 14 µM. It also gave a TGI [26] of 27 µM, a GI50 [27] of 4.97 µM and a TGI [27] of 18.7 µM. It also gave a GI50 [28] of 2.68 µM, a TGI [28] of 7.65 µM and a GI50 [29] of 4.17 µM. For the same compound, the TGI [29] was 16.2 µM, the GI50 [30] was 6.91 µM and the TGI [30] was 19.3 µM. It also gave a GI50 [31] of 1.93 µM, a TGI [31] of 3.67 µM and a GI50 [32] of 1.84 µM. For the same compound, the TGI [32] was 5.14 µM, the GI50 [33] was 13.9 µM and the TGI [33] was 26.9 µM. For the same compound, the GI50 [34] was 13.6 µM, the TGI [34] was 27.5 µM and the GI50 [35] was 14.1 µM. The TGI [35] was 28.1 µM, the GI50 [36] was 2.83 µM and the TGI [36] was 8.67 µM. For the same compound, the GI50 [37] was 2.11 µM, the TGI [37] was 5.26 µM and the GI50 [38] was 1.76 µM. The TGI [38] was 3.32 µM, the GI50 [39] was 2.9 µM and the TGI [39] was 11.1 µM. For the same compound, the GI50 [40] was 4.46 µM, the TGI [40] was 15.9 µM and the GI50 [41] was 3.75 µM. For the same compound, the TGI [41] was 14.5 µM, the GI50 [42] was 2.55 µM and the TGI [42] was 7.17 µM. For the same compound, the GI50 [43] was 13.6 µM, the TGI [43] was 26.4 µM and the GI50 [44] was 7.91 µM. The TGI [44] was 36.6 µM, the GI50 [45] was 10.3 µM and the TGI [45] was 28.1 µM. The GI50 [46] was 10.2 µM, the TGI [46] was 21.9 µM and the GI50 [47] was 1.99 µM. The TGI [47] was 3.56 µM, the GI50 [48] was 1.94 µM and the TGI [48] was 5.06 µM. The GI50 [49] was 1.93 µM, the TGI [49] was 4.02 µM and the GI50 [50] was 1.49 µM. The TGI [50] was 2.81 µM, the GI50 [51] was 2.07 µM and the TGI [51] was 4.31 µM. For the same compound, the GI50 [52] was 3.09 µM, the TGI [52] was 6.14 µM and the GI50 [53] was 10.3 µM. The TGI [53] was 22.3 µM, the GI50 [54] was 1.62 µM and the TGI [54] was 3.29 µM. The GI50 [55] was 12.4 µM, the TGI [55] was 63 µM and the GI50 [56] was 12.5 µM. The TGI [56] was 25 µM, the GI50 [57] was 1.92 µM and the TGI [57] was 3.99 µM. For the same compound, the GI50 [58] was 1.57 µM, the TGI [58] was 3.46 µM and the GI50 [59] was 4.99 µM. For the same compound, the TGI [59] was 16.1 µM.
